Assay results from patent US20180346879A1, “GENERATION OF MUSCLE-LINEAGE CLELS FROM STEM CELLS” (GENEA IP HOLDINGS PTY LIMITED, priority 2015, published 2018).

Tests used:
Type in all cases: cell-based
[1] = tested on: GENEA019 human embryonic stem cells; assay: Myogenic induction with Wnt pathway modulators, Hoechst and Pax3 staining; conditions: modulator 1 μM in medium with Y-27632 10 μM and Alk5 inhibitor 2 μM; 9 days
Protocol: GENEA019 human embryonic stem cells were plated in Skeletal Muscle Cell Basal Medium (Lonza) with Skeletal Muscle Cell Growth Supplement (Lonza) and horse serum (5%) supplemented with Y-27632 (10 μM) and Alk5 inhibitor (2 μM), and a series of Wnt pathway modulators, including CHIR99021 (1 μM), AZD1080 (1 μM), IWP-L6 (1 μM), D4476 (1 μM), and AT13148 (1 μM). After 9 days in culture, cells were fixed and stained for DNA (Hoechst) and Pax3.

[2] = tested on: GENEA019 human embryonic stem cells; assay: Myogenic induction with or without LRRK2-IN-1, Hoechst and Pax3 staining; conditions: LRRK2-IN-1 1 μM added to medium with Y-27632, CHIR99021, Alk5 inhibitor; 9 days
Source text: (§1) After 9 days, cells were fixed and stained for DNA (Hoechst) and Pax3.

[3] = tested on: GENEA019 and GENEA067 human embryonic stem cell lines; assay: Myogenic induction with or without LRRK2-IN-1, phase contrast microscopy; conditions: LRRK2-IN-1 1 μM, suppresses flat contaminating cells with large cytoplasms
Source text: as §1
The same experiment was repeated using GENEA019 and GENEA067 human embryonic stem cell lines. Cell populations were observed by phase contrast microscopy.

[4] = tested on: GENEA002, GENEA015, and GENEA019 human embryonic stem cell lines; assay: Myogenic induction in MCDB media with optional THI, FGF2 or LRRK2-IN-1, Hoechst, Pax3 and Pax7 staining; conditions: 4 days; for cell proliferation (FIGS. 15A-F) / yield of Pax3/7-positive cells (FIGS. 15A-F): 5 μm THI or 5 ng/L FGF2 added to MCDB media, collagen I
Protocol: GENEA002, GENEA015, and GENEA019 human embryonic stem cell lines were plated on collagen I-coated culture dishes in the following culture media:
4) MCDB FA ITS: same as MCDB FA with insulin/transferrin/selenium (ITS, 100×)
A control compound, 5 μm THI (2-acetyl-4(5)-(1,2,3,4-tetrahydroxybutyl)imidazole), or […] FGF2 was optionally added to the media. The LRRK2 inhibitor, LRRK2-IN-1 (1 μM), was optionally added to MCDB MinFA medium. Cells were fixed after 4 days and stained for DNA (Hoechst), Pax3 and Pax7.

[5] = tested on: GENEA015 and GENEA019 human embryonic stem cells; assay: Kinase inhibitor dose range in myogenic induction, Hoechst and Pax7 staining; conditions: dose range from 10 nM to 1 μM; 4 days; medium with Y-27632, CHIR99021, Alk5 inhibitor
Protocol: In addition to LRRK2-IN-1, various other kinase inhibitors were tested in a dose range from 10 nM to 1 μM. Cells were fixed after 4 days and stained for DNA (Hoechst) and Pax7.

[6] = tested on: GENEA019 and GENEA067 human embryonic stem cells; assay: Differentiation with continuous ROCK inhibition or with ROCK inhibitor removed after attachment; conditions: Y-27632 (10 μM) removed one day after plating, compared with continuous presence
Protocol: Cells were either differentiated further in the same medium with media changes every other day, or one day after plating and after cells had attached, cells were changed to and maintained in the same culture medium but without the ROCK inhibitor, Y-27632 (10 μM).

[7] = tested on: GENEA019 human embryonic cells; assay: Myogenic induction on extracellular matrix molecules (collagen I, laminins), Hoechst and Pax7 staining; conditions: plate coating; medium with Y-27632 10 μM, CHIR99021 3 μM, Alk5 inhibitor 2 μM; 9 days
Source text: After 9 days, cells were fixed and stained for DNA (Hoechst) and Pax7.

For `N#Cc1ccc2[nH]c(O)c(-c3ccc(CN4CCOCC4)cn3)c2c1` [AZD1080], the “myogenic induction / Pax3-positive cells (FIGS. 17A and 17B)” value (“myogenic induction / Pax3-positive cells” for short) [1] was “promoted myogenic induction and resulted in Pax3-positive cells”.
For `Cc1c[nH]c(-c2cnc(NCCNc3ccc(C#N)cn3)nc2-c2ccc(Cl)cc2Cl)n1` [CHIR99021], the “myogenic induction / Pax3-positive cells” value [1] was “promoted myogenic induction and resulted in Pax3-positive cells”.
With `O=C(CSc1nc2c(c(=O)n1-c1ccccc1)SCC2)Nc1ccc(-c2ccccc2)cn1` [IWP-L6] the “myogenic induction / Pax3-positive cells” value [1] was “blocked myogenic induction”.
`COc1cc(C(=O)N2CCC(N3CCN(C)CC3)CC2)ccc1Nc1ncc2c(n1)N(C)c1ccccc1C(=O)N2C` [LRRK2-IN-1] was tested, and the “cell proliferation (FIG. 13A)” value [2] was “promoted cell proliferation”, the “expression of Pax3 (FIG. 13B)” value [2] was “increased expression of Pax3” and the “purity of cell populations (FIG. 14)” value [3] was “purer cell populations”. For the same molecule, the “proportion of Pax3-positive and Pax7-positive cells (FIGS. 15A-F)” value ([4]; LRRK2-IN-1 1 μM added to MCDB MinFA medium) was “strong increase” and the “formation of Pax7-positive cells (FIGS. 16A and 16B)” value [5] was “strongly promoted the formation of Pax7-positive cells in a dose-dependent manner”.
In the case of `CC(=O)c1ncc(C(O)C(O)C(O)CO)[nH]1` (stereo not shown) [THI, 2-acetyl-4(5)-(1,2,3,4-tetrahydroxybutyl)imidazole], the “cell proliferation (FIGS. 15A-F)” value [4] is reported as “neither THI nor FGF2 enhanced” and the “yield of Pax3/7-positive cells (FIGS. 15A-F)” value [4] is reported as “neither THI nor FGF2 enhanced”.
In the case of `C[C@@H](N)[C@H]1CC[C@H](C(=O)Nc2ccncc2)CC1` [Y-27632], the “cell growth without continuous ROCK inhibition (FIG. 18)” value [6] is reported as “significantly growth retarded” and the “cell population homogeneity during differentiation without continuous ROCK inhibition” value [6] is reported as “highly heterogeneous cell populations”.
For “FGF2: fibroblast growth factor family member”, the “cell proliferation (FIGS. 15A-F)” value [4] was “neither THI nor FGF2 enhanced” and the “yield of Pax3/7-positive cells (FIGS. 15A-F)” value [4] was “neither THI nor FGF2 enhanced”.
In the case of “laminin 521: extracellular matrix molecule coating tissue culture plates”, the “Pax7-positive satellite-like cell sub population (FIG. 12A)” value [7] is reported as “favor a satellite-like cell sub population that is Pax7-positive” and the “cell proliferation (FIG. 12B)” value [7] is reported as “promote cell proliferation”.
